Marks after values point to notes of the source that are not given here.
Assays:
swine [1] = assay: 2003 swine feed test: belly thickness and flex; type: in vivo; conditions: recalculated from Table 2: oleic acid level High or tocotrienol addition 225 ppm
Source text: (§1) Applicants assessed the effects of supplementing the animal diet with oleic acid and tocotrienol on pork meat quality in an experiment in which data from pigs fed one of four dietary treatments were compared. Seventy-two barrows (approximately 20 kg) were randomly placed in pens with water and feed provided ad libitum at the Pioneer Livestock Nutrition Center (PLNC) in Polk City, Iowa. Ad libitum swine feeding continued for 49 days (through Mar. 4, 2003) until the average weight reached 32 kg. A uniform group of 64 pigs was selected, and the pigs were randomly assigned to each of four treatments with 16 experimental units (individually housed pigs) per dietary treatment.
(§2) On Apr. 22, 2003 (Day 1 of the feed test) the feeders were emptied and the dietary treatments were commenced and continued until Jul. 14, 2003 (Day 83). Dietary treatments consisted of two levels of oleic acid (normal and high) with or without tocotrienol (0 or 225 ppm), as summarized below:
In the normal or control (CO) diet, the total dietary content of oil was 5.5 wt % of the feed. The oil was a typical corn oil having an oleic acid content of 29.6 wt % of the fatty acid fraction. In the high-oleic acid (HO) diet, the total dietary content of oil was still 5.5 wt %, but the oil was high-oleic sunflower oil with an oleic acid content of 80.2 wt % of the fatty acid fraction. The high oleic sunflower oil was purchased from Cargill, Inc. All four experimental diets were formulated with soybean meal and corn flaking grits. The latter, being largely devoid of oil, were used in conjunction with the corn and high-oleic vegetable oils to achieve the desired dietary fatty acid content. […]
The pigs were slaughtered at an average weight of 120 kg on Jul. […] Following a 24 hour chill period, the carcasses were transferred to the University of Missouri processing lab, where weight yields were recorded and meat tissue was evaluated.
The right pork carcass side was fabricated into primal and sub-primal cuts and the bellies were evaluated for thickness, firmness and fatty acid profile.

swine [2] = assay: 2003 swine feed test: ground pork discoloration on simulated retail display; type: in vivo; conditions: recalculated from Table 8: oleic acid level High or tocotrienol addition 225 ppm
Source text: as §1, §2
(§3) Samples of ground pork were packaged in PVC wrap and kept on simulated retail display for seven days. During that time trained panelists made a subjective determination of the overall color score and percent discoloration of the ground pork.
Percent discoloration was also determined subjectively. In the table that follows, a higher number indicates a greater percent discoloration: […]

steers = assay: 2004 cattle feed test: uncooked ribeye steak discoloration; type: in vivo; conditions: recalculated from Table 16: oleic acid level High or tocotrienol addition 150 ppm
Source text: Applicants assessed the effects of supplementing the animal diet with oleic acid and tocotrienol on beef quality in an experiment in which data from steers fed one of four dietary treatments were compared. The steers were blocked by weight (heavy or light) and assigned to eight outdoor group pens with five steers per pen. Pens were randomly assigned within each of the two weight blocks to four dietary treatments: (1) simulated oil-rich corn grain (coarse corn grits with corn oil added as 6% of the weight of the grits plus oil) (CO); (2) simulated oil-rich corn grain (coarse corn grits with a similar level of corn oil) with supplemental tocotrienol (CO+TT), (3) simulated high oleic acid corn grain (coarse corn grits with high oleic sunflower oil added as 6% of the weight of the grits plus oil) (HO); and (4) simulated high oleic acid corn grain (coarse corn grits with high oleic sunflower oil added as 6% of the weight of the grits plus oil) with supplemental tocotrienol (HO+TT); as summarized below:
The steers were fed their respective dietary supplements for 133 days starting Apr. 12, 2004 and ending Aug. 23, 2004. The cattle were loaded on Aug. 24, 2004 and transported to Emporia, Kans. for harvest at the IBP packing plant. Steaks and ground beef samples were evaluated for, among other things, color, shelf life (as measured by percent discoloration over time) and rancidity (as measured by TBARS concentration over time).
Ribeye steaks utilized for color evaluation were placed onto 17S foam trays with meat, fish and poultry pads (Dri-Loc AC-50) and wrapped with polyvinyl chloride (PVC) film. The steaks were placed under simulated retail display at 34+/−3 degree F. in open top cases programmed to defrost twice daily for seven days. During that time trained panelists made subjective determinations of the overall color score and percent discoloration of the ribeye steaks. […]
Percent discoloration was also determined subjectively. […]

swine [3] = assay: 2003 swine feed test: ground pork visual color score on simulated retail display; type: in vivo; conditions: recalculated from Table 6: oleic acid level High or tocotrienol addition 225 ppm
Source text: as §1, §2, §3
Overall color was graded on a scale of 1.0 to 5.0 as follows: 1.0=bright grayish-pink or reddish-pink (acceptable), 2.0=grayish-pink or reddish-pink (acceptable), 3.0=slightly dark pink/red/pink/tan(acceptable), 3.5=threshold of retail acceptability, 4.0=moderately tan/pinkish-red (unacceptable), and 5.0=dark tan or dark pinkish-red (unacceptable).

swine [4] = assay: 2003 swine feed test: belly adipose tissue fatty acid composition and iodine value; type: in vivo; conditions: recalculated from Table 4: oleic acid level High or tocotrienol addition 225 ppm
Source text: as §1, §2
In the normal or control (CO) diet, the total dietary content of oil was 5.5 wt % of the feed. The oil was a typical corn oil having an oleic acid content of 29.6 wt % of the fatty acid fraction. In the high-oleic acid (HO) diet, the total dietary content of oil was still 5.5 wt %, but the oil was high-oleic sunflower oil with an oleic acid content of 80.2 wt % of the fatty acid fraction. The high oleic sunflower oil was purchased from Cargill, Inc. All four experimental diets were formulated with soybean meal and corn flaking grits. The latter, being largely devoid of oil, were used in conjunction with the corn and high-oleic vegetable oils to achieve the desired dietary fatty acid content.
The tocotrienol used to supplement the (TT) and the (HO+TT) diets was obtained commercially from Fuji Chemical Industries (U.S.A.) Inc. of Robbinsville, N.J., and contained 7.5% alpha-, 12.3% gamma- and 3.0% delta-tocotrienol (a total tocotrienol content of 22.8%), as well as 7.2% alpha-tocopherol.
The fatty acid composition and iodine values in the pork belly adipose tissue was measured.

swine [5] = assay: 2003 swine feed test: TBARS content of uncooked and cooked ground pork; type: in vivo; conditions: recalculated from Table 10: oleic acid level High or tocotrienol addition 225 ppm
Source text: as §1, §2
[…]. Cooked ground pork was measured for TBARS concentration at 0 hours and 24 hours after cooking.

[6] = In vitro addition of gamma-tocopherol to ground pork: TBARS of cooked patties; conditions: GT 100 ppm added in vitro to raw ground pork, HO = pork from swine fed high oleic diet
Protocol: Applicants assessed the effects of in vitro addition of gamma-tocopherol to ground pork from swine fed a diet supplemented with oleic acid in order to evaluate gamma tocopherol's value as an animal feed supplement when used in conjunction with oleic acid. Gamma-tocopherol was added to the raw (uncooked) ground pork from swine whose diet was not supplemented with oleic acid and swine whose diet was supplemented with oleic acid. Ground pork from pigs fed the respective treatments were formed into patties, cooked and refrigerated for two days in plastic pouches. Samples of the cooked patties were then submitted for TBARS (thiobarbituric acid reactive substances) determination at 0 hours and 24 hours following refrigeration.

## CCCCCCCC/C=C\CCCCCCCC(=O)O [Oleic Acid, oleic acid]
Swine [1]
  Belly thickness: 35.6 mm
  Lateral flex: 11.0^b
  Vertical flex: 18.7
Swine [2]; Day 3
  Ground pork discoloration: 2.41
Swine [2]; Day 4
  Ground pork discoloration: 2.84
Swine [2]; Day 5
  Ground pork discoloration: 4.64
steers; Day 3
  Uncooked ribeye steak discoloration: 1.4
steers; Day 5
  Uncooked ribeye steak discoloration: 1.1^b
steers; Day 7
  Uncooked ribeye steak discoloration: 1.6
Swine [3]; Day 3
  Ground pork visual color score: 1.81
Swine [3]; Day 4
  Ground pork visual color score: 2.67
Swine [3]; Day 5
  Ground pork visual color score: 4.38
Swine [4]
  Iodine Value (IV): 63.7^b
  Monounsaturated Fatty Acid (MUFA): 55.55^b
  Polyunsaturated Fatty Acids (PUFA): 9.67^b
Swine [5]; cooked, 0 hours
  Ground pork oxidation (TBARS): 0.69^b mg malonaldehyde/kg sample
Swine [5]; cooked, 24 hours
  Ground pork oxidation (TBARS): 1.73^b mg malonaldehyde/kg sample
Swine [5]; uncooked, Day 0
  Ground pork oxidation (TBARS): 0.28 mg malonaldehyde/kg sample
Swine [5]; uncooked, Day 4
  Ground pork oxidation (TBARS): 0.34 mg malonaldehyde/kg sample
Swine [5]; uncooked, Day 7
  Ground pork oxidation (TBARS): 0.41 mg malonaldehyde/kg sample

## Cc1c(O)cc2c(c1C)O[C@](C)(CCC[C@H](C)CCC[C@H](C)CCCC(C)C)CC2 [GT, gamma-tocopherol]
[6]; 0 hours following refrigeration
  TBARS content of cooked ground pork patties: 0.746 mg malonaldehyde/kg sample
[6]; 24 hours following refrigeration
  TBARS content of cooked ground pork patties: 1.24 mg malonaldehyde/kg sample
